The target in test [1] is T1, human recombinant adrenergic α2A receptor (Homo sapiens, UniProt P08913).
T1 construct: expressed in transfected cells; host or cells: insect Sf9 cells
T1 sequence (P08913 1-465): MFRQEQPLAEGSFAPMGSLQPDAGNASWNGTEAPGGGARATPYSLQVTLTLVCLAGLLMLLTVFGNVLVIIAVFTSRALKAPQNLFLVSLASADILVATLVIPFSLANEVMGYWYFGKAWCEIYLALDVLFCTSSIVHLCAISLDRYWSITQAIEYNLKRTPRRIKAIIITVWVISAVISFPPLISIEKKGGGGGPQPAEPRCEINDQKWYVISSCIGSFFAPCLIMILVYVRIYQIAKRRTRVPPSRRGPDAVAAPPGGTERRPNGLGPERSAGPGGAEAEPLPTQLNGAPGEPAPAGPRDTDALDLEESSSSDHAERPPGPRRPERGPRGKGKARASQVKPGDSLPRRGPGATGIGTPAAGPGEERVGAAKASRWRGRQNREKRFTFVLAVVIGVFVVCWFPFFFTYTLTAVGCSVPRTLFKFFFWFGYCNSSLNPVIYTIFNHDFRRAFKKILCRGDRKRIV
Kind of test: Adrenergic α2A radioligand binding ([3H]MK-912). As to conditions: read-out: Adrenergic (0.1 μM) a2A, percent inhibition of specific binding; compound at 0.1 μM; 1 nM [3H]MK-912. As for the experimental part: To evaluate in radioligand binding assays the activity of compounds of the invention, human recombinant adrenergic α2A receptor expressed in insect Sf9 cells (Uhlen, S. et al, J. Pharmacol. Exp. Ther. 271:1558, 1994) in a modified Tris-HCl buffer (50 mM Tris-HCl, pH 7.4, 12.5 mM MgCl2, 2 mM EDTA) was used. Compounds of invention were incubated with 1 nM [^3H]MK-912 for 60 min at 25° C. MK-912 is (2S-trans)-1,3,4,5′,6,6′,7,12b-octahydro-1′,3′-dimethyl-spiro[2H-benzofuro[2,3-a]quinolizine-2,4′(1′H)-pyrimidin]-2′(3′H)-one hydrochloride Non-specific binding was estimated in the presence of 10 μM WB-4101 (2-(2,6-Dimethoxyphenoxyethyl)aminomethyl-1,4-benzodioxane hydrochloride). Receptor proteins were filtered and washed, the filters were then counted to determine [^3H]MK-912 specifically bound. […] Compounds of the invention were tested in this biochemical assay and percent inhibition of specific binding was determined.

Test [2] deals with T2, human recombinant serotonin (5-Hydroxytryptamine) 5-HT7 receptor (Homo sapiens, UniProt P34969).
T2 construct: expressed in transfected cells; host or cells: CHO
T2 sequence (P34969 whole entry): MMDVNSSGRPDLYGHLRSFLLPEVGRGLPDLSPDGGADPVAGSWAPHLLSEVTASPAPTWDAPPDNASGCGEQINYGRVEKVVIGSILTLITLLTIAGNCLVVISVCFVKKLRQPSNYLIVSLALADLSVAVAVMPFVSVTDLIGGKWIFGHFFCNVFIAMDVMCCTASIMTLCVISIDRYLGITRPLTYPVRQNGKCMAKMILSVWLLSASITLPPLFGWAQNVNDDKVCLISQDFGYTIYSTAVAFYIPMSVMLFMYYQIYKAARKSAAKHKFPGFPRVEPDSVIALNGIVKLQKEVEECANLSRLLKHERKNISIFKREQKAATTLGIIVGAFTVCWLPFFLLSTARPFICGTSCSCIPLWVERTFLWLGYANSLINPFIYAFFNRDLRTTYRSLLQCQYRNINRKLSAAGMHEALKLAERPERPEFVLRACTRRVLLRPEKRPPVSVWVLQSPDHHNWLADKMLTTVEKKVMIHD
Kind of test: Serotonin 5-HT7 radioligand binding ([3H]LSD). Conditions: compound at 0.1 μM; read-out: Inhibition of ligand binding, Serotonin 5-HT7 (percent inhibition of specific binding). As for the experimental part: Lysergic acid diethylamide (LSD) for 120 min. at 25° C. […] Receptor proteins were filtered and washed, the filters were then counted to determine [^3H]LSD specifically bound.

In test [3] the target is T3, human recombinant adrenergic α2B receptor (Homo sapiens, UniProt P18089).
T3 construct: expressed in transfected cells; host or cells: CHO-K1
T3 sequence (P18089 1-450): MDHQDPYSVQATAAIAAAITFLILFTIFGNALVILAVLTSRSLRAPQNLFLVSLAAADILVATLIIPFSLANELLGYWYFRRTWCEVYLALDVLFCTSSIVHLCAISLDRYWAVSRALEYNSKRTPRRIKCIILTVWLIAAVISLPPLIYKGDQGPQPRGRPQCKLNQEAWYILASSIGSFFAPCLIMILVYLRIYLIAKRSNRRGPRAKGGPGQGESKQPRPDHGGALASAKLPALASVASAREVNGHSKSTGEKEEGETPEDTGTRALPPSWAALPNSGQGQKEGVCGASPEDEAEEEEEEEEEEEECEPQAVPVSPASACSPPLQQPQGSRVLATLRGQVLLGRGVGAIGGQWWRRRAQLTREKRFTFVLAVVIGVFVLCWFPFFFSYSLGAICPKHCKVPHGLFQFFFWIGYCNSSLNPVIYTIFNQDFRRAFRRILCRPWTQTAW
Kind of test: Adrenergic α2B radioligand binding ([3H]Rauwolscine). Conditions: read-out: Adrenergic (0.1 μM) a2B, percent inhibition of specific binding; compound at 0.1 μM; 2.5 nM [3H]Rauwolscine.
Description: To evaluate in radioligand binding assays the activity of compounds of the invention, human recombinant adrenergic α2B receptor expressed in Chinese hamster ovary (CHO) K1 cells (Uhlen, S. et al, Eur. J. Pharmacol. 343(1):93, 1998) in a modified Tris-HCl buffer (50 mM Tris-HCl, pH 7.4, 12.5 mM MgCl2, 1 mM EDTA, 0.2% BSA) was used. Compounds of the invention were incubated with 2.5 nM [^3H]Rauwolscine for 60 min at 25° C. Non-specific binding was estimated in the presence of 10 μM Prazosin. Receptor proteins were filtered and washed, the filters were then counted to determine [^3H]Rauwolscine specifically bound. […] Compounds of the invention were tested in this biochemical assay and percent inhibition of specific binding was determined.

The target of test [4] is T4, human recombinant adrenergic α2C receptor (Homo sapiens, UniProt P18825).
T4 construct: expressed in transfected cells; host or cells: insect Sf9 cells
T4 sequence (P18825 1-462): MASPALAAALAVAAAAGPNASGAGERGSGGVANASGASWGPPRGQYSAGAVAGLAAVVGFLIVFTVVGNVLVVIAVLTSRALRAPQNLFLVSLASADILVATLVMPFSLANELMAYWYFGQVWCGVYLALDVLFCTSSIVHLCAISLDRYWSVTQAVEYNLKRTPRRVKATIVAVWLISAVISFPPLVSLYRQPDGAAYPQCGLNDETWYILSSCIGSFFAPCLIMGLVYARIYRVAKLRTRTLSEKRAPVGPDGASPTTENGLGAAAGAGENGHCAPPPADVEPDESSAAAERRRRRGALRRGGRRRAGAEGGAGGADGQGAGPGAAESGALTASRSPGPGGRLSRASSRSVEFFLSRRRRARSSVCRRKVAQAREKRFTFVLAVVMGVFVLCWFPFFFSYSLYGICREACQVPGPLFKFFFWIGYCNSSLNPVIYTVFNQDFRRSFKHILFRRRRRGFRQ
Description: Adrenergic α2C radioligand binding ([3H]MK-912). Conditions: read-out: Adrenergic (0.1 μM) a2C, percent inhibition of specific binding; compound at 0.1 μM; 1 nM [3H]MK-912. The method in brief: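 Membranes from Sf9 cells expressing the human receptor, in 50 mM Tris-HCl pH 7.4 with 12.5 mM MgCl2 and 2 mM EDTA, incubated with compound and 1 nM [3H]MK-912 for 60 min at 25 °C. Non-specific binding defined with 10 μM WB-4101. Filter-bound radioactivity counted; percent inhibition of specific binding reported.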

The target of test [5] is T5, human recombinant dopamine D2L receptor (Homo sapiens, UniProt P14416).
T5 construct: expressed in transfected cells; host or cells: CHO
T5 sequence (P14416 whole entry): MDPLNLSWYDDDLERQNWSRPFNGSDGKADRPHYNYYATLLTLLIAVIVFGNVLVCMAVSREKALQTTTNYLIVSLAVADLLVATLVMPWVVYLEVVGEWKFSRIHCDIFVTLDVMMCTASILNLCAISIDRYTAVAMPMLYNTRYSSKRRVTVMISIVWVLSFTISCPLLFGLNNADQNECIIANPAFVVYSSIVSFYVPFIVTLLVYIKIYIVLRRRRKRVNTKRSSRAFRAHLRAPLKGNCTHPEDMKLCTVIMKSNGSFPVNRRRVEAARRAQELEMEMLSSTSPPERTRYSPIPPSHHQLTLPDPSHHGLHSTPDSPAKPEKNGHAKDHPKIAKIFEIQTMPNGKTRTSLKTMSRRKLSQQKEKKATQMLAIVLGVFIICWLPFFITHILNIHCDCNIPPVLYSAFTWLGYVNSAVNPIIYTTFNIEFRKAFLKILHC
Kind of test: Dopamine D2L radioligand binding ([3H]Spiperone). As to conditions: read-out: Dopamine D2L (1 μM), percent inhibition of specific binding; compound at 1 μM; 0.16 nM [3H]Spiperone. As for the experimental part: Non-specific binding was estimated in the presence of 10 μM Haloperidol. Receptor proteins were filtered and washed, the filters were then counted to determine [^3H]Spiperone specifically bound.

Usually inhibition stands for the drop in the measured response relative to a control, in per cent.

As for `Cc1ccc2c(c1)c1c(n2-c2cscc2-c2ccc(C)s2)CCN(C)C1` [Compound No. 79], the inhibition at 0.1 µM stood at 92% in test [1], 98% in test [2], 106% in test [3] and 77% in test [4]. Also, the inhibition at 1 µM in test [5] was determined as 30%.

On to `Cc1csc(-c2cscc2-n2c3c(c4cc(C)ccc42)CN(C)CC3)c1` [Compound 50], for which the inhibition at 0.1 µM in test [1] is 93%; in test [2], 97%; in test [4], 90%. For the same molecule, in test [5], the inhibition at 1 µM stood at 36%.

On to `COc1ccc(-c2cscc2-n2c3c(c4cc(C)ccc42)CN(C)CC3)cc1` [Compound 37], for which the figures for the inhibition at 0.1 µM in test [1], in test [2] and in test [4] were 94%, 100% and 72%, respectively. Also, in test [5], the inhibition at 1 µM turned out to be 18%.

Regarding `Cc1ccc2c(c1)c1c(n2-c2cscc2-c2ccc3cnccc3c2)CCN(C)C1` [Compound No. 68], the inhibition at 0.1 µM came out at 90% in test [1], 99% in test [2] and 29% in test [4]. Also, the inhibition at 1 µM in test [5] was 9%.

For the molecule `Cc1ccc2c(c1)c1c(n2-c2ccccc2-c2ccc3c(ccn3C)c2)CCN(C)C1` [Compound No. 85, 2,8-dimethyl-5-(2-(1-methyl-1H-indol-5-yl)phenyl)-2,3,4,5-tetrahydro-1H-pyrido[4,3-b]indole], the inhibition at 0.1 µM in test [1] turned out to be 94%; in test [2], 26%; in test [4] it was 46%. In addition, in test [5], the inhibition at 1 µM is 11%.

With `Cc1ccc2c(c1)c1c(n2-c2cscc2-c2ccc(S(C)(=O)=O)cc2)CCN(C)C1` [Compound No. 76], the inhibition at 0.1 µM in test [1] worked out at 90%; in test [2], 85%; in test [4], 79%. Moreover, the inhibition at 1 µM in test [5] stood at 11%.

With `Cc1ccc2c(c1)c1c(n2-c2cscc2-c2ccc3c(ccn3C)c2)CCN(C)C1` [Compound 33], the values for the inhibition at 0.1 µM in test [1], in test [2] and in test [4] were 100%, 94% and 87%, respectively. Besides, the inhibition at 1 µM in test [5] was 19%.

Turning to `Cc1ccc2c(c1)c1c(n2-c2cccc(-c3ccnn3C)c2)CCN(C)C1` [Compound No. 66, 2,8-dimethyl-5-(3-(1-methyl-1H-pyrazol-5-yl)phenyl)-2,3,4,5-tetrahydro-1H-pyrido[4,3-b]indole], the values for the inhibition at 0.1 µM in test [2] and in test [4] were 32% and 8%, respectively. In addition, the inhibition at 1 µM in test [5] was 24%.

For `Cc1ccc2c(c1)c1c(n2-c2cscc2-c2cnn(C)c2)CCN(C)C1` [Compound 30], the inhibition at 0.1 µM is 94% in test [2] and 10% in test [4]. Also, the inhibition at 1 µM in test [5] was determined as 4%.

With `Cc1ccc2c(c1)c1c(n2-c2ccc(-c3cccc4ccccc34)cn2)CCN(C)C1` [Compound No. 141, 2,8-dimethyl-5-(5-(naphthalen-1-yl)pyridin-2-yl)-2,3,4,5-tetrahydro-1H-pyrido[4,3-b]indole], the inhibition at 0.1 µM in test [2] came to 33%; in test [4], 16%. Moreover, in test [5], the inhibition at 1 µM amounted to 15%.

On to `CC(=O)Nc1ccc(-c2ccc(-n3c4c(c5cc(C)ccc53)CN(C)CC4)nc2)cn1` [Compound No. 139, N-(6′-(2,8-dimethyl-3,4-dihydro-1H-pyrido[4,3-b]indol-5(2H)-yl)-3,3′-bipyridin-6-yl)acetamide], for which the inhibition at 0.1 µM came to 13% in test [2] and 2% in test [4]. In addition, in test [5], the inhibition at 1 µM was determined as 16%.

Turning to `Cc1ccc2c(c1)c1c(n2-c2ccc3ccncc3c2)CCN(C)C1` [Compound No. 74, 5-(isoquinolin-7-yl)-2,8-dimethyl-2,3,4,5-tetrahydro-1H-pyrido[4,3-b]indole], the inhibition at 0.1 µM in test [2] is 2%; in test [4] it was 11%. In test [5], the inhibition at 1 µM turned out to be 56%.

Take `Cc1ccc2c(c1)c1c(n2-c2ccc(-c3sccc3C)cn2)CCN(C)C1` [Compound No. 148, 2,8-dimethyl-5-(5-(3-methylthiophen-2-yl)pyridin-2-yl)-2,3,4,5-tetrahydro-1H-pyrido[4,3-b]indole]: the results for the inhibition at 0.1 µM in test [2] and in test [4] were 35% and 4%, respectively. Further, the inhibition at 1 µM in test [5] came to 17%.

As to `CC(=O)Nc1ccc(-c2cccc(-n3c4c(c5cc(C)ccc53)CN(C)CC4)c2)cn1` [Compound 45, N-(5-(3-(2,8-dimethyl-3,4-dihydro-1H-pyrido[4,3-b]indol-5(2H)-yl)phenyl)pyridin-2-yl)acetamide], the inhibition at 0.1 µM is 51% in test [2] and 7% in test [4]. The inhibition at 1 µM in test [5] came out at 20%.

In the case of `Cc1ccc2c(c1)c1c(n2-c2cccc(-c3ccc(F)nc3)c2)CCN(C)C1` [Compound 44, 5-(3-(6-fluoropyridin-3-yl)phenyl)-2,8-dimethyl-2,3,4,5-tetrahydro-1H-pyrido[4,3-b]indole], the inhibition at 0.1 µM was 40% in test [2] and 10% in test [4]. Further, the inhibition at 1 µM in test [5] is 23%.

As to `Cc1ccc2c(c1)c1c(n2-c2ccc(-c3cnc(N(C)C)nc3)cn2)CCN(C)C1` [Compound No. 138, 5-(6-(2,8-dimethyl-3,4-dihydro-1H-pyrido[4,3-b]indol-5(2H)-yl)pyridin-3-yl)-N,N-dimethylpyrimidin-2-amine], the results for the inhibition at 0.1 µM in test [2] and in test [4] were 6% and -2%, respectively. Besides, in test [5], the inhibition at 1 µM was -2%.

Consider `Cc1ccc2c(c1)c1c(n2-c2cccc(-c3ccc4[nH]cnc4c3)c2)CCN(C)C1` [Compound 54, 5-(3-(1H-benzo[d]imidazol-5-yl)phenyl)-2,8-dimethyl-2,3,4,5-tetrahydro-1H-pyrido[4,3-b]indole], for which the inhibition at 0.1 µM is 26% in test [2] and 12% in test [4]. Also, the inhibition at 1 µM in test [5] turned out to be 22%.

Take `Cc1ccc2c(c1)c1c(n2-c2cscc2-c2c(C)noc2C)CCN(C)C1` [Compound 62]: the inhibition at 0.1 µM in test [2] was 48%; in test [4], 33%. The inhibition at 1 µM in test [5] was found to be 16%.

Source of the values: patent US9187471B2, “Pyrido [4,3-b] indole and pyrido [3,4-b] indole derivatives and methods of use” (Medivation Technologies, Inc., priority 2010, dated 2015).
